Results from patent US20030096264A1, “Multi-parameter high throughput screening assays (MPHTS)” (Psychiatric Genomics, Inc., priority 2001, published 2003).

What was measured:
[1] = tested on: rat (rattus norvegicus) neuronal cells; assay: Microarray expression profile of primary rat cortical neurons incubated with valproate; assay type: cell-based; settings: 0.5 mM valproate, 3 days
Source text: This example describes experiments, which analyzed changes in the expression profile for rat (rattus norvegicus) neuronal cells induced by valproate, a drug used clinically to treat neuropsychiatric disorders such as bipolar disorder. […] Expression profiles for these genes are compared to expression profiles for orthologous genes in human schizophrenia patients.
Primary neuron cells were isolated from E19 rat embryos and cultured as follows. First, the cortex was dissected from each embryo and placed in HBSS solution. The HBSS solution was subsequently removed and replaced with 5 ml papain solution at a concentration of 10 units per ml. The cortex was then incubated in the papain solution for 10 minutes and at 37° C. After incubation, the Papain solution was removed and 10% NuSerum media (Becton Dickinson, Bedford Mass.) was added in its place. The cortex was then centrifuged at 1000 rpm for 10 minutes, after which time the solution was removed and 1 ml of media containing 0.1% DNase was added. Cells were titurated immediately to break up the tissue. The volume of the cell suspensions was brought up to 15 ml and the cells were counted.
Approximately 4×10^6 cells were plated per 10 cm dish, in NeuroBasal A (Invitrogen Corp., Carlsbad Calif.) medium containing B27 and insulin (25 μg/ml). The cell cultures were incubated in a humidified incubator with 5% CO2 and at 37° C. The culture media were changed every 2 days. Cells were incubated in 0.5 mM valproate for 3 days. Control cultures were also prepared and incubated under the same conditions (including the carrier DMSO) but without valproate.
mRNA was extracted from each group of cultures and expression profiles were measured on microarrays according to standard techniques (see the Detailed Description section, infra). Data from duplicate microarrays was statistically evaluated to identify genes that are differentially expressed in the presence of valproate, relative to expression levels in the absence of valproate.
Table 1, below, lists the twelve genes identified in these experiments as being differentially expressed in the presence of valproate, relative to its expression level in the absence of valproate. These genes were identified using a Rat Toxicology array from Incyte (Palo Alto, Calif.). Each gene is listed in Table 1 by its common or popular name, along with the GenBank Accession and Gene Identification (GI) numbers of the rat gene whose expression level was evaluated in these experiments. The “expression ratio” measured for each gene is also specified. Specifically, the expression ratio, Φ, was calculated using the formula: [formula]
where Ev is the expression level measured in cells incubated with valproate and Eo is the expression level in the absence of valproate.

[2] = tested on: human neuroblastoma cell line NBFL; assay: Microarray expression profile of NBFL cells incubated with valproate; assay type: cell-based; settings: 0.5 mM valproate, 24 h
Experimental: The additional signature genes described here were identified using a human neuroblastoma cell line that is known in the art as NBFL (see, Symes et al., Proc. Natl. Acad. Sci. U.S.A. 1993, 90(2):572-576). NBFL cell cultures were maintained in DMEM medium supplemented with L-glutmine, antibiotics, 10% fetal bovine serum and 5% horse serum. Before treatment, cells were passaged, allowed to adhere overnight, and the medium was replaced with serum free medium for 24 hours. The cells were then incubated for 24 hours in either the presence or absence of valproate (0.5 mM), and in the absence of serum. mRNA was extracted from each group of cultures and sent to a commercial company for expression profiling by hybridization to microarrays. Data from at least three independent microarray experiments was then statistically evaluated to identify genes that are differentially expressed in the presence of valproate, relative to expression levels in the absence of valproate.
Table 3, below, list each of the genes whose expression level changed in cells exposed to valproate, identified using a UniGem V2 array from Incyte (Palo Alto, Calif.) and also provides the expression ratio ((), defined in Example 1, supra) measured for each gene. Each gene is identified in Table 3 by its common name, as well as by the GenBank Accession and Gene Identification (GI) numbers for its nucleotide sequence. A cDNA sequence for each gene listed in Table 3 is also provided in the accompanying Sequence Listing, and its sequence identifier is specified in Table 3 along with the GenBank Accession number. Table 3 also indicates the Unigene cluster number for each gene from a recent build of the NCBI Unigene database.

## CCCC(CCC)C(=O)O [valproate]
[1]; vs no valproate, M22357 SEQ ID NO: 1
  expression ratio Φ: myelin-associated glycoprotein (MAG): 2.16
[1]; AF178845 SEQ ID NO: 5
  expression ratio Φ: calmodulin: −1.95
[1]; AY004290 SEQ ID NO: 4
  expression ratio Φ: SCG10: −1.43
[1]; D25221 SEQ ID NO: 11
  expression ratio Φ: selenoprotein P: 1.51
[1]; J03753 SEQ ID NO: 12
  expression ratio Φ: plasma membrane calcium ATPase: −1.36
[1]; L21191 SEQ ID NO: 3
  expression ratio Φ: GAP-43: −1.88
[1]; M18630 SEQ ID NO: 2
  expression ratio Φ: 2′,3′-cyclic nucleotide-3′ phosphodiesterase (CNPI): 1.92
[1]; M29275 SEQ ID NO: 6
  expression ratio Φ: calcineurin A: −1.43
[1]; M75148 SEQ ID NO: 8
  expression ratio Φ: kinesin light chain C: −1.53
[1]; M86443 SEQ ID NO: 10
  expression ratio Φ: hypoxanthine-guanine phosphoribosyltransferase: −1.37
[1]; U09567 SEQ ID NO: 9
  expression ratio Φ: cysteine-rich protein: 1.49
[1]; U48245 SEQ ID NO: 7
  expression ratio Φ: protein kinase C-binding protein NELL2: −1.7
[2]; serum free, SEQ ID NO: 25
  expression ratio Φ: nidogen (NID): 1.7
[2]; SEQ ID NO: 26
  expression ratio Φ: silver (SIL): 1.6
[2]; SEQ ID NO: 27
  expression ratio Φ: Homo sapiens clone 23798 and 23825: 1.5
[2]; SEQ ID NO: 28
  expression ratio Φ: LIM protein: 1.4
[2]; SEQ ID NO: 29
  expression ratio Φ: carnitine palmitoyltransferase II: 1.4
[2]; SEQ ID NO: 30
  expression ratio Φ: iduronate-2-sulfatase: 1.4
[2]; SEQ ID NO: 31
  expression ratio Φ: dynamin 1: 1.4
[2]; SEQ ID NO: 32
  expression ratio Φ: myosin IB: 1.4
[2]; SEQ ID NO: 33
  expression ratio Φ: EGF-like-domain: 1.4
[2]; SEQ ID NO: 34
  expression ratio Φ: islet cell autoantigen 1: −1.4
[2]; SEQ ID NO: 35
  expression ratio Φ: regulator of G-protein signaling 5: −1.4
[2]; SEQ ID NO: 36
  expression ratio Φ: XPA binding protein 1: −1.4
[2]; SEQ ID NO: 37
  expression ratio Φ: P311 protein: −1.4
[2]; SEQ ID NO: 38
  expression ratio Φ: SWI/SNF: −1.4
[2]; SEQ ID NO: 39
  expression ratio Φ: ALL1: −1.4
[2]; SEQ ID NO: 40
  expression ratio Φ: RNA binding motif: −1.4
[2]; SEQ ID NO: 41
  expression ratio Φ: SMAD1: −1.4
[2]; SEQ ID NO: 42
  expression ratio Φ: NADH dehydrogenase (ubiquinone): −1.4
[2]; SEQ ID NO: 43
  expression ratio Φ: calmodulin 2: −1.4
[2]; SEQ ID NO: 44
  expression ratio Φ: vimentin: −1.4
[2]; SEQ ID NO: 45
  expression ratio Φ: GRB2-associated binding protein 1: −1.5
[2]; SEQ ID NO: 46
  expression ratio Φ: splicing factor 3b (subunit 3): −1.5
[2]; SEQ ID NO: 47
  expression ratio Φ: DKFZp547DO26_r1 (EST): −1.5
[2]; SEQ ID NO: 48
  expression ratio Φ: insulinoma-associated 1 (INSM1): −1.6
[2]; SEQ ID NO: 49
  expression ratio Φ: neuroendocrine secretory protein 55: −1.6
[2]; SEQ ID NO: 50
  expression ratio Φ: v-yes-1: −1.6
[2]; SEQ ID NO: 51
  expression ratio Φ: chromodomain helicase DNA binding: −1.6
[2]; SEQ ID NO: 52
  expression ratio Φ: cholinergic receptor: −1.7
[2]; SEQ ID NO: 53
  expression ratio Φ: dopmine β-hydroxylase (DBH): -1.7
[2]; SEQ ID NO: 54
  expression ratio Φ: dopa decarboxylase (DDC): −2
[2]; SEQ ID NO: 55
  expression ratio Φ: chromogranin B (CG-B): −2.1
